Series [1] is classed as in vivo, Macaca nemestrina.
Series [2] is described as follows: Free ARV compartmental models. Conditions: for CL/F: calculated from population PK parameters; for half-life / k el / Vd/F: male, monkey, sc. The class given is in vivo, Macaca nemestrina.
Series [3] in a line: Equilibrium dialysis of DcNP-associated versus free drug. Conditions: TLC-ART101, equilibrium dialysis, 6-8 kDa cut-off membrane. The class given is physicochemical. On the technique in general: In equilibrium dialysis free small molecules cross a membrane that holds back macromolecules.
The conditions of series [4]: cited from earlier work.
A short description of a further series: in vivo. The following applies: macaque, sc.
The nature of series [5]: TLC-ART101 mechanism-based pharmacokinetic. Conditions: for k21, lymphatic entry rate constant, fast pathway / k31, lymphatic entry rate constant, intermediate pathway / k41, lymphatic entry rate constant, slow pathway / V5_DcNP, apparent volume of distribution of DcNP-associated ARV / tlag2, lymphatic transit lag time, intermediate pathway / tlag1, lymphatic transit lag time, fast pathway / k75, rate constant for release of free ARV from DcNPs in plasma / tlag3, lymphatic transit lag time, slow pathway: TLC-ART101; for k21, lymphatic entry rate constant, fast pathway / k31, lymphatic entry rate constant, intermediate pathway / k41, lymphatic entry rate constant, slow pathway: fixed after manual adjustment.

For series [6] the following is noted: rat, in vivo; cited from earlier work.
[7] abbreviates: Free formulation, single SC dose, macaques, geometric mean (%CV), N=3.
Setting [8] is: TLC-ART101, single SC dose, macaques, geometric mean (%CV), N=4.
Setting [9] is: Free formulation, parameter value (%CV).
Where [10] appears, read: parameter value (%CV), listed as TLC-ART101 Tenofovir.
[11] abbreviates: TLC-ART101 model, free submodel.
Setting [12] is: TLC-ART101 model, free submodel, parameter value (%CV).
Setting [13] is: parameter value (%CV), listed as TLC-ART101 Ritonavir.

Read-outs that look alike come from different tables or passages of the source.

As a reminder, the AUC(0-t) is exposure summed from dosing to a finite time, without extrapolation to infinity. Lower therefore signals less exposure. By half-life is commonly meant how long it takes for the measured level to halve. Higher therefore signals slow loss. Turning to `Cc1cccc(C)c1OCC(=O)N[C@@H](Cc1ccccc1)[C@@H](O)C[C@H](Cc1ccccc1)NC(=O)[C@H](C(C)C)N1CCCNC1=O` [Lopinavir], the “CL/F, apparent total clearance” value in series [1] (setting [7]) was 4.64 (14) L/[hr•kg]; in series [1] (setting [8]), 0.85 (85) L/[hr•kg]. Moreover, the “Terminal t1/2” value in series [1] (Free formulation, single SC dose, macaques, geometric mean (%CV), N=3, listed as Lopinavir (LPV)) was 8.65 (28) hr; in series [4] (monkey, in vivo, sc), 476.94 (173) hr. In series [1] (male, monkey, plasma, sc), this molecule had an AUC(0-t) of 4350 ng·h/mL. The CL/F in series [2] (Free formulation, listed as Free Lopinavir) was 4.24 L/[hr•kg]; in series [2] (Free formulation, listed as LPV) it was roughly 4 L/[hr•kg]. Further, the “k21, absorption rate constant” value in series [2] (setting [9]) is 0.7120 (20) 1/hr. Besides, the half-life in series [2] (plasma) was 8.85 h. The molecule also gave a k el in series [2] (plasma) of 2.18e-05 s⁻¹. Also, the “mean fraction of DcNP-associated drug” value in series [3] was determined as 92.2%.

One may read the Tmax as the time from dosing to the highest level. The Vd/F is the apparent distribution volume after extravascular dosing. For the molecule `C[C@H](Cn1cnc2c(N)ncnc21)OCP(=O)(O)O` [Tenofovir], in series [1] (setting [7]), the “CL/F, apparent total clearance” value is 0.72 (4) L/[hr•kg] and the “MBRT0-24h, mean body residence time” value is 2.61 (12) hr. Further, in series [1] (setting [8]), the “CL/F, apparent total clearance” value is 0.02 (15) L/[hr•kg] and the “MBRT0-336h, mean body residence time” value was 102.68 (7) hr. Besides, the “MBRT0-24h fold shorter than those of free LPV and RTV” value in series [1] (free formulation) is roughly 5 fold. Further, in series [1] (free formulation, by 10 hr), the “plasma level as % of peak” value is roughly 1%. For the same molecule, in series [1] (male, monkey, plasma, sc), the AUC(0-t) came to 14400 ng·h/mL and the Tmax is roughly 1 h. The half-life in series [1] (male, monkey, plasma, sc, Terminal t1/2, Free formulation, single SC dose, macaques, geometric mean (%CV), N=3) is 8.01 h. Besides, in series [2] (Free formulation, 2CM), the “k23, peripheral to central exchange rate constant” value is on record as 0.0738 (-) 1/hr. The Vβ/F in series [2] (Free formulation, 2CM, secondary parameter) is reported as 8.65 L/kg. Moreover, in series [2] (Free formulation, 2CM, parameter value (%CV)), the “k32, central to peripheral exchange rate constant” value is listed as 0.0298 (0) 1/hr. In addition, the CL/F in series [2] (Free formulation) is 0.60 L/[hr•kg]. Besides, the “k21, absorption rate constant” value in series [2] (setting [9]) is recorded as 2.3423 (38) 1/hr. Also, in series [2] (in vivo), the k el is 0.000164 s⁻¹. In series [2] (in vivo, 10.6 mg/kg), this molecule came in with a Vd/F of 1.44 L/kg. Moreover, the “mean fraction of DcNP-associated drug” value in series [3] stood at 11.2%. In addition, in the series “in vivo”, the Kp came out at 3.01. Further, the “Terminal t1/2” value in series [4] (setting [8]) is given as 65.33 (11) hr. The “AUC0-336h, area under the plasma drug concentration-time curve” value in series [4] (in vivo, sc) is listed as 416.55 (15) hr•μg/mL. Also, in series [5], the “k21, lymphatic entry rate constant, fast pathway” value is 0.1300 (-) 1/hr; the “k31, lymphatic entry rate constant, intermediate pathway” value is 0.1588 (-) 1/hr; the “k41, lymphatic entry rate constant, slow pathway” value was 0.1779 (-) 1/hr. Also, in series [5] (parameter value (%CV)), the “V5_DcNP, apparent volume of distribution of DcNP-associated ARV” value is listed as 0.17 (22) L/kg and the “tlag2, lymphatic transit lag time, intermediate pathway” value is reported as 24.04 (19) hr. Further, in series [5] (parameter value (%CV), listed as TFV), the “tlag1, lymphatic transit lag time, fast pathway” value (from here on “tlag1 … fast pathway”) was determined as 0.1 h. Further, in series [5] (setting [10]), the “k75, rate constant for release of free ARV from DcNPs in plasma” value is reported as 0.0164 (15) 1/hr; the “tlag1 … fast pathway” value is recorded as 0.10 (-) hr; the “tlag3, lymphatic transit lag time, slow pathway” value is listed as 122.06 (3) hr. In series [5] (setting [11]), the “k76, absorption rate constant of free ARV from SC site” value is listed as 1.4201 (-) 1/hr and the k87 is on record as 0.0298 (-) 1/hr. Besides, in series [5] (setting [12]), the V7_Free is on record as 1.66 (18) L/kg; the “k07, clearance rate constant of free ARV from central compartment” value is given as 0.5824 (2) 1/hr; the k78 is 0.0738 (0) 1/hr.

As for `COc1cccc2c1C(=O)c1c(O)c3c(c(O)c1C2=O)C[C@@](O)(C(=O)CO)C[C@@H]3O[C@H]1C[C@H](N)[C@H](O)[C@H](C)O1` [doxorubicin], in series [6], the “% of SC dose recovered in the blood” value is 64-74% and the “% of SC dose recovered in the lymph” value is recorded as 0.063-2%.

With `CC(C)c1nc(CN(C)C(=O)N[C@H](C(=O)N[C@@H](Cc2ccccc2)C[C@H](O)[C@H](Cc2ccccc2)NC(=O)OCc2cncs2)C(C)C)cs1` [Ritonavir], the “CL/F, apparent total clearance” value in series [1] (setting [7]) was 4.23 (15) L/[hr•kg]. Besides, the “Terminal t1/2” value in series [1] (Free formulation, single SC dose, macaques, geometric mean (%CV), N=3, listed as Ritonavir (RTV)) is recorded as 7.99 (38) hr. The “CL/F, apparent total clearance” value in series [1] (setting [8]) was 1.43 (56) L/[hr•kg]. The AUC(0-t) in series [1] (male, monkey, plasma, sc) worked out at 1370 ng·h/mL. The CL/F in series [2] (Free formulation, listed as Free Ritonavir) is 3.90 L/[hr•kg]. Moreover, the CL/F in series [2] (Free formulation, listed as RTV) was roughly 4 L/[hr•kg]. Besides, the “k21, absorption rate constant” value in series [2] (setting [9]) is recorded as 0.6242 (29) 1/hr. In series [2] (plasma), the Vd/F came out at 42.4 L/kg, the half-life was 7.54 h and the k el is 2.55e-05 s⁻¹. In series [3], the “mean fraction of DcNP-associated drug” value is reported as 91.1%. The molecule also registered a Kp in “in vivo” of 7.4. Moreover, in series [4] (setting [8]), the “AUC0-336h, area under the plasma drug concentration-time curve” value is 4.80 (57) hr•μg/mL and the “Terminal t1/2” value is 44.06 (46) hr. In series [5], the “k21, lymphatic entry rate constant, fast pathway” value is 0.2361 (-) 1/hr; the “k31, lymphatic entry rate constant, intermediate pathway” value is on record as 0.1881 (-) 1/hr; the “k41, lymphatic entry rate constant, slow pathway” value was 0.0198 (-) 1/hr. Further, the “tlag2, lymphatic transit lag time, intermediate pathway” value in series [5] (parameter value (%CV)) is recorded as 38.83 (13) hr. Also, in series [5] (parameter value (%CV), listed as RTV), the “tlag1 … fast pathway” value is roughly 2 h. Further, in series [5] (setting [13]), the “V5_DcNP, apparent volume of distribution of DcNP-associated ARV” value was 10.09 (27) L/kg; the “k75, rate constant for release of free ARV from DcNPs in plasma” value is listed as 0.4336 (5) 1/hr; the “tlag1 … fast pathway” value is 2.13 (51) hr; the “tlag3, lymphatic transit lag time, slow pathway” value is listed as 181.87 (11) hr. Further, in series [5] (setting [12]), the V7_Free is reported as 67.94 (3) L/kg and the “k07, clearance rate constant of free ARV from central compartment” value is 0.0962 (4) 1/hr.

On to `CN(Cc1cnc2nc(N)nc(N)c2n1)c1ccc(C(=O)N[C@@H](CCC(=O)O)C(=O)O)cc1` [methotrexate], for which, in series [6], the “% of SC dose recovered in the blood” value is on record as 64-74% and the “% of SC dose recovered in the lymph” value was 0.063-2%.
